Assay results: the NIST ThermoML archive (doi:10.1016/j.tca.2012.10.004)
Numbers after ± are expanded uncertainties.

Experiment: xn = mol fraction of the nth substance listed
Conditions: 101 kPa, Liquid, Pycnometric method

CN(CCO)CCO [N-methyldiethanolamine] + O=S1(=O)CCCC1
mass density (293.15 K, x1 = 0.1001): 1241.9 ± 0.6 kg/m3
mass density (293.15 K, x1 = 0.2012): 1214.9 ± 0.6 kg/m3
mass density (293.15 K, x1 = 0.2999): 1188 ± 0.6 kg/m3
mass density (293.15 K, x1 = 0.4003): 1163.1 ± 0.6 kg/m3
mass density (293.15 K, x1 = 0.5005): 1139.8 ± 0.5 kg/m3
mass density (293.15 K, x1 = 0.6): 1118.1 ± 0.5 kg/m3
mass density (293.15 K, x1 = 0.7002): 1097.7 ± 0.5 kg/m3
mass density (293.15 K, x1 = 0.8011): 1078.9 ± 0.5 kg/m3
mass density (293.15 K, x1 = 0.8998): 1059.9 ± 0.5 kg/m3
mass density (293.15 K, x1 = 1): 1041.6 ± 0.5 kg/m3
mass density (298.15 K, x1 = 0.1001): 1237.6 ± 0.6 kg/m3
mass density (298.15 K, x1 = 0.2012): 1210.5 ± 0.6 kg/m3
mass density (298.15 K, x1 = 0.2999): 1183.9 ± 0.6 kg/m3
mass density (298.15 K, x1 = 0.4003): 1159.1 ± 0.6 kg/m3
mass density (298.15 K, x1 = 0.5005): 1135.7 ± 0.5 kg/m3
mass density (298.15 K, x1 = 0.6): 1114.1 ± 0.5 kg/m3
mass density (298.15 K, x1 = 0.7002): 1093.6 ± 0.5 kg/m3
mass density (298.15 K, x1 = 0.8011): 1074.9 ± 0.5 kg/m3
mass density (298.15 K, x1 = 0.8998): 1055.9 ± 0.5 kg/m3
mass density (298.15 K, x1 = 1): 1037.9 ± 0.5 kg/m3
mass density (303.15 K, x1 = 0.1001): 1233.1 ± 0.6 kg/m3
mass density (303.15 K, x1 = 0.2012): 1205.9 ± 0.6 kg/m3
mass density (303.15 K, x1 = 0.2999): 1179.5 ± 0.6 kg/m3
mass density (303.15 K, x1 = 0.4003): 1154.8 ± 0.6 kg/m3
mass density (303.15 K, x1 = 0.5005): 1131.5 ± 0.6 kg/m3
mass density (303.15 K, x1 = 0.6): 1110 ± 0.5 kg/m3
mass density (303.15 K, x1 = 0.7002): 1089.6 ± 0.5 kg/m3
mass density (303.15 K, x1 = 0.8011): 1070.9 ± 0.5 kg/m3
mass density (303.15 K, x1 = 0.8998): 1051.9 ± 0.5 kg/m3
mass density (303.15 K, x1 = 1): 1034.1 ± 0.5 kg/m3
mass density (308.15 K, x1 = 0.1001): 1228.6 ± 0.6 kg/m3
mass density (308.15 K, x1 = 0.2012): 1201.5 ± 0.6 kg/m3
mass density (308.15 K, x1 = 0.2999): 1175.1 ± 0.6 kg/m3
mass density (308.15 K, x1 = 0.4003): 1150.4 ± 0.6 kg/m3
mass density (308.15 K, x1 = 0.5005): 1127.2 ± 0.6 kg/m3
mass density (308.15 K, x1 = 0.6): 1105.8 ± 0.5 kg/m3
mass density (308.15 K, x1 = 0.7002): 1085.6 ± 0.5 kg/m3
mass density (308.15 K, x1 = 0.8011): 1066.8 ± 0.5 kg/m3
mass density (308.15 K, x1 = 0.8998): 1048 ± 0.5 kg/m3
mass density (308.15 K, x1 = 1): 1030.3 ± 0.5 kg/m3
mass density (313.15 K, x1 = 0.1001): 1224.1 ± 0.6 kg/m3
mass density (313.15 K, x1 = 0.2012): 1197 ± 0.6 kg/m3
mass density (313.15 K, x1 = 0.2999): 1170.7 ± 0.6 kg/m3
mass density (313.15 K, x1 = 0.4003): 1146.2 ± 0.6 kg/m3
mass density (313.15 K, x1 = 0.5005): 1123.1 ± 0.6 kg/m3
mass density (313.15 K, x1 = 0.6): 1101.6 ± 0.6 kg/m3
mass density (313.15 K, x1 = 0.7002): 1081.5 ± 0.5 kg/m3
mass density (313.15 K, x1 = 0.8011): 1062.8 ± 0.5 kg/m3
mass density (313.15 K, x1 = 0.8998): 1044 ± 0.5 kg/m3
mass density (313.15 K, x1 = 1): 1026.5 ± 0.5 kg/m3
mass density (318.15 K, x1 = 0.1001): 1219.6 ± 0.7 kg/m3
mass density (318.15 K, x1 = 0.2012): 1192.4 ± 0.6 kg/m3
mass density (318.15 K, x1 = 0.2999): 1166.3 ± 0.6 kg/m3
mass density (318.15 K, x1 = 0.4003): 1141.9 ± 0.6 kg/m3
mass density (318.15 K, x1 = 0.5005): 1118.9 ± 0.6 kg/m3
mass density (318.15 K, x1 = 0.6): 1097.5 ± 0.6 kg/m3
mass density (318.15 K, x1 = 0.7002): 1077.5 ± 0.5 kg/m3
mass density (318.15 K, x1 = 0.8011): 1058.7 ± 0.5 kg/m3
mass density (318.15 K, x1 = 0.8998): 1040 ± 0.5 kg/m3
mass density (318.15 K, x1 = 1): 1022.7 ± 0.5 kg/m3
mass density (323.15 K, x1 = 0.1001): 1215.2 ± 0.7 kg/m3
mass density (323.15 K, x1 = 0.2012): 1187.6 ± 0.6 kg/m3
mass density (323.15 K, x1 = 0.2999): 1161.9 ± 0.6 kg/m3
mass density (323.15 K, x1 = 0.4003): 1137.5 ± 0.6 kg/m3
mass density (323.15 K, x1 = 0.5005): 1114.6 ± 0.6 kg/m3
mass density (323.15 K, x1 = 0.6): 1093.3 ± 0.6 kg/m3
mass density (323.15 K, x1 = 0.7002): 1073.3 ± 0.6 kg/m3
mass density (323.15 K, x1 = 0.8011): 1054.7 ± 0.5 kg/m3
mass density (323.15 K, x1 = 0.8998): 1035.9 ± 0.5 kg/m3
mass density (323.15 K, x1 = 1): 1018.9 ± 0.5 kg/m3
mass density (328.15 K, x1 = 0.1001): 1211.1 ± 0.7 kg/m3
mass density (328.15 K, x1 = 0.2012): 1183.3 ± 0.7 kg/m3
mass density (328.15 K, x1 = 0.2999): 1157.7 ± 0.6 kg/m3
mass density (328.15 K, x1 = 0.4003): 1133.2 ± 0.6 kg/m3
mass density (328.15 K, x1 = 0.5005): 1110.4 ± 0.6 kg/m3
mass density (328.15 K, x1 = 0.6): 1089.2 ± 0.6 kg/m3
mass density (328.15 K, x1 = 0.7002): 1069.2 ± 0.6 kg/m3
mass density (328.15 K, x1 = 0.8011): 1050.6 ± 0.6 kg/m3
mass density (328.15 K, x1 = 0.8998): 1032 ± 0.5 kg/m3
mass density (328.15 K, x1 = 1): 1015 ± 0.5 kg/m3
